Results reported in patent US9593149B2, “Amylin and calcitonin receptor agonist” (Novo Nordisk A/S, priority 2014, dated 2017).
Numbered stars: 1 amine (or outer) side, 2 acyl side, 3 side chain; on linkers, the order of the positions; unused ones are H or OH. Side chains are listed from the residue outwards. Peptide text beside a SMILES is read from it. * marks the point of attachment. C20 diacid = O=C(O)CCCCCCCCCCCCCCCCCCC(=O)*; C18 diacid = O=C(O)CCCCCCCCCCCCCCCCC(=O)*; γGlu = O=C(O)[C@H](CCC(=O)[*:2])N[*:1]

Columns and labels:
[1] = Assay (XV) subcutaneous PK in LYD-pigs, co-formulated or co-dosed with liraglutide; type: in vivo; settings: for AUC/D / Cmax/D / T½: LYD-pigs s.c.
Experimental: The studies were performed in female LYD pigs of SPF origin delivered from Lars Jonson, Hillerødvej 70, Lynge.
Before the animals arrived, the animal rooms and pens were cleaned and disinfected with Virkon S. During the study, the animal rooms were cleaned and washed regularly.
The pigs were group housed during the acclimatisation period. The pigs were fitted with a central venous catheter while under anaesthesia and after the single housed after catheterization in pens ≧3.1 m^2 with straw as bedding. The temperature in the rooms was set at 20−23° C. and the relative humidity to 30-70%. The rooms were illuminated to give a cycle of 12 hours light and 12 hours darkness. Light was on from 07.00 to 19.00 h.
The formulations was prepared similarly and filled in cartridges in all cases.
The animals were dosed subcutaneously as follows.
The s.c. dosing was performed in 4 mm depth, in a site of injection which was secured on beforehand by ultrasound to avoid muscular tissue or heavy vascularization. Dosing was made using NovoPen®4 and needle Novofine 28 G and a needle stopper to ensure 4 mm depth of injection. The needle was kept in the subcutis for 10 seconds after the injection to secure deposition of compound. […] The co-formulation was administered as one injection. Study was performed as a cross over study with adequate wash out between dosings.
Blood was sampled at predefined time points for up till 15 days post dosing to adequately cover the full plasma concentration-time profile of the mimylin derivative. Blood samples were drawn from a central venous catheter to jugularis made through the catheter which was afterwards flushed with 10 ml 0.9% NaCl.
For each blood sampling time point approximately 0.8 mL of whole blood was collected in a 1.5 mL EDTA coated tube, and the tube was gently turned to allowing mixing of the sample with the anticoagulant. Blood samples (for example 0.8 mL) were collected in EDTA buffer (8 mM) and then centrifuged at 4° C. and 2000 G for 10 minutes. Plasma was pipetted into Micronic tubes on dry ice, and kept at −20° C. until analysis.
Individual plasma concentration-time profiles were analysed by a non-compartmental model in Phoenix WinNonlin version 6.3 (Pharsight Inc., Mountain View, Calif., USA).
The area under the plasma concentration versus time curve (AUC, [time×concentration]) was calculated (by the Pharsight programme) after subcutaneous administration, typically until 240-288 hours post dosing, or until last measured concentration. The AUC was calculated and given as AUCinf-pred and dose normalized.
Results of co-formulation studies in LYD-pigs are summarized below

[2] = molecular target: T1, human amylin 3(a) receptor (human calcitonin receptor + RAMP-3), BHK570 cells (Homo sapiens, UniProt O60896+P30988); assay: Assay (II)a functional CRE-luciferase assay with albumin, human amylin receptor; type: cell-based; settings: Tested with HSA; read-out: hAmylin-R funct. EC50
T1 construct: host or cells: BHK570
T1 sequence (O60896 24-148): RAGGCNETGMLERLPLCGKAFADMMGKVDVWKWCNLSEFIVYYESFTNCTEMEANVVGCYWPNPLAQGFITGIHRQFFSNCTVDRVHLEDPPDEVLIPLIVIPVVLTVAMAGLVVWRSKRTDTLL
T1 sequence (P30988 25-474): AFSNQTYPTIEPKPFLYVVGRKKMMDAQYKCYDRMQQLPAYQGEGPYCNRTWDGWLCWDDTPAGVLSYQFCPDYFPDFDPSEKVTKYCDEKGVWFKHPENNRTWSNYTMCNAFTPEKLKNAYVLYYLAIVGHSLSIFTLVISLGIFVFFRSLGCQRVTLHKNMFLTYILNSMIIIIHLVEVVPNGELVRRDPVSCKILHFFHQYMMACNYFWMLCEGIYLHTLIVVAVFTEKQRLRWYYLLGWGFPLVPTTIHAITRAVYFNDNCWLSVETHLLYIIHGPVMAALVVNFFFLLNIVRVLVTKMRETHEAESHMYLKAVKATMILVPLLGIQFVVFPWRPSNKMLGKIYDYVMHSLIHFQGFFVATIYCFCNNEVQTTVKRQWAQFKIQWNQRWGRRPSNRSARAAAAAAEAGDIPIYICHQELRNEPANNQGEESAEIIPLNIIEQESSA
Procedure, shortened: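 BHK570 cells stably carry a CRE-luciferase reporter and the calcitonin receptor; co-transfected RAMP-3 gives the amylin 3(a) receptor line. Cells were treated for 3 h at 37 °C in DMEM with 10% FBS and 10 mM Hepes, pH 7.4. cAMP-driven luciferase was read by LucLite luminescence after 30 min at RT.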

[3] = Co-formulation liraglutide + Ex #2

Row | Structure (SMILES) | AUC/D ([1]; Co-dosing liraglutide + Ex #2) [kg·h/L] | Cmax/D ([1]; Co-dosing liraglutide + Ex #2) [kg/L] | T½ ([1]; Co-dosing liraglutide + Ex #2) [h] | AUC/D [1, 3] [kg·h/L] | Cmax/D [1, 3] [kg/L] | T½ [1, 3] [h] | effect on PK profile of the co-formulated peptide ([1]; administered as co-formulations to LYD pigs) | EC50 [2] [nM]
1 | CC(C)C[C@H](NC(=O)[C@H](C)NC(=O)[C@H](C)NC(=O)[C@@H](NC(=O)[C@H](CO)NC(=O)[C@H](CC(C)C)NC(=O)[C@H](CCC(=O)O)NC(=O)[C@H](CO)NC(=O)[C@H](C)NC(=O)[C@H](CCC(=O)O)NC(=O)CCCCCCCCCCCCCCCCC(=O)O)[C@@H](C)O)C(=O)NCC(=O)N[C@@H](CCCNC(=N)N)C(=O)N[C@@H](CC(C)C)C(=O)N[C@@H](CO)C(=O)N[C@@H](C)C(=O)N[C@@H](CCC(=O)O)C(=O)N[C@@H](CC(C)C)C(=O)N[C@@H](Cc1cnc[nH]1)C(=O)N[C@@H](CCC(=O)O)C(=O)N[C@@H](CC(C)C)C(=O)N[C@@H](C)C(=O)N[C@H](C(=O)N[C@@H](CC(C)C)C(=O)N1CCC[C@H]1C(=O)N[C@@H](CCCNC(=N)N)C(=O)N[C@H](C(=O)N[C@@H](CCC(=O)O)C(=O)N[C@H](C(=O)NCC(=O)N1CCC[C@H]1C(=O)N[C@@H](CCC(=O)O)C(=O)N[C@@H](CO)C(=O)N1CCC[C@H]1C(N)=O)[C@@H](C)O)[C@@H](C)O)[C@@H](C)O [Ex. #2, [N-terminal(C18 diacid)]mimylin] ({C18 diacid}-EASELSTAALGRLSAELHELATLPRTETGPESP-NH2) | 712 | 6.9 | 67 | 732 | 5.8 | 67 | do not affect the PK profile of liraglutide | –
2 | CC(=O)N[C@@H](C)C(=O)N[C@@H](CO)C(=O)N[C@@H](CCCCNC(=O)CC[C@H](NC(=O)CCCCCCCCCCCCCCCCCCC(=O)O)C(=O)O)C(=O)N[C@@H](CC(C)C)C(=O)N[C@@H](CO)C(=O)N[C@H](C(=O)N[C@@H](C)C(=O)N[C@@H](C)C(=O)N[C@@H](CC(C)C)C(=O)NCC(=O)N[C@@H](CCCNC(=N)N)C(=O)N[C@@H](CC(C)C)C(=O)N[C@@H](CO)C(=O)N[C@@H](C)C(=O)N[C@@H](CCC(=O)O)C(=O)N[C@@H](CC(C)C)C(=O)N[C@@H](Cc1c[nH]cn1)C(=O)N[C@@H](CCC(=O)O)C(=O)N[C@@H](CC(C)C)C(=O)N[C@@H](C)C(=O)N[C@H](C(=O)N[C@@H](CC(C)C)C(=O)N1CCC[C@H]1C(=O)N[C@@H](CCCNC(=N)N)C(=O)N[C@H](C(=O)N[C@@H](CCC(=O)O)C(=O)N[C@H](C(=O)NCC(=O)N[C@@H](CO)C(=O)NCC(=O)N[C@@H](CO)C(=O)N1CCC[C@H]1C(N)=O)[C@@H](C)O)[C@@H](C)O)[C@@H](C)O)[C@@H](C)O [compound 68, [N-terminal(acetyl), des1, 4K(C20 diacid-gGlu), 30S, 31G]mimylin] (Ac-ASK([γGlu-C20 diacid])LSTAALGRLSAELHELATLPRTETGSGSP-NH2) | – | – | – | – | – | – | – | 0.072
3 | CC(C)C[C@H](NC(=O)[C@H](CCCNC(=N)N)NC(=O)CNC(=O)[C@H](CC(C)C)NC(=O)[C@@H](NC(=O)[C@H](C)NC(=O)[C@@H](NC(=O)[C@H](CO)NC(=O)[C@H](CC(C)C)NC(=O)[C@H](CCC(=O)O)NC(=O)[C@H](CO)NC(=O)[C@H](C)NC(=O)CC[C@H](NC(=O)CCCCCCCCCCCCCCCCCCC(=O)O)C(=O)O)[C@@H](C)O)C(C)C)C(=O)N[C@@H](CO)C(=O)N[C@@H](CCC(N)=O)C(=O)N[C@@H](CCC(=O)O)C(=O)N[C@@H](CC(C)C)C(=O)N[C@@H](Cc1c[nH]cn1)C(=O)N[C@@H](CCC(=O)O)C(=O)N[C@@H](CC(C)C)C(=O)N[C@@H](CCC(N)=O)C(=O)N[C@H](C(=O)N[C@@H](Cc1ccc(O)cc1)C(=O)N1CCC[C@H]1C(=O)N[C@@H](CCCNC(=N)N)C(=O)N[C@H](C(=O)N[C@@H](CCC(=O)O)C(=O)N[C@H](C(=O)NCC(=O)N[C@@H](CO)C(=O)NCC(=O)N[C@H](C(=O)N[C@@H](Cc1ccc(O)cc1)C(N)=O)[C@@H](C)O)[C@@H](C)O)[C@@H](C)O)[C@@H](C)O [compound 114, [N-terminal(C20 diacid-gGlu), des1, 9V, 15Q, 21Q, 23Y, 30S, 31G, 32T, 33Y]mimylin] | – | – | – | – | – | – | – | 0.142
